# Results taken from patent US12059482B2, “Activity-based probe compounds, compositions, and methods of use” (THE BOARD OF TRUSTEES OF THE LELAND STANFORD JUNIOR …, priority 2016, dated 2024).
# Test system: cysteine cathepsins
# Experiment: inhibition of probe labeling in living RAW cells by JPM-OEt pretreatment
# Format: cell-based, mouse
# Conditions: JPM-OEt pre-treatment (50 μM, 1 hr)
# Experimental: RAW cells were cultured in DMEM (GIBCO) supplemented with 10% fetal bovine serum (FBS; GIBCO), 100 units/mL penicillin and 100 μg/mL streptomycin (GIBCO). 4T1 cells (ATCC) were cultured in RPMI (GIBCO) supplemented with 10% fetal bovine serum (FBS; GIBCO), 100 units/mL penicillin and 100 μg/mL streptomycin (GIBCO). All cells were cultured in a 5% CO2 humidified incubator at 37° C. For intact cell labeling, cells were exposed to probe (500× in DMSO) in culture media and incubated for 2 hr at 37° C., unless stated otherwise. Where indicated the cells were preincubated for 1 hr with the inhibitor JPM-OEt (500× in DMSO) or exposed to mouse serum (1 μl probe stock solution in DMSO added to 9 μl serum) for 4 hr before addition to the cells. After labeling, the cells were washed with PBS and resuspended in hypotonic lysis buffer (50 mM PIPES pH 7.4, 10 mM KCl, 5 mM MgCl2, 2 mM EDTA, 4 mM DTT, and 1% NP-40) and put on ice for 15 min, centrifuged at 4° C. for 30 min and supernatants were collected, and protein concentration was determined using a BCA kit (pierce). […] Labeling intensities were quantified using Image J software. […] After 15 min on ice and centrifugation at 4° C. for 30 min the supernatants were collected, and protein concentration was determined using a BCA kit (pierce). […] 4× SDS-sample buffer was added and the protein was denatured for 3 min at 100° C. and analyzed as described above. […]
substance,measurement,value
JPM-OEt,blocking of probe labeling,more than 90%
